According to PubChem BioAssay AID248 (DTP/NCI, 2004):
Values joined by “and” are separate entries in the source; they are usually repeats but may differ in a detail not shown here. Equal entries are not always repeated. Toxic doses and inconclusive results are not listed. Rule as the data show it: active = T/C of 150% or more; inactive = T/C below 125%.

Tested on: L1210 leukemia ip in BDF1 mice, survival T/C
Assay: NCI In Vivo Anticancer Drug Screen. Data for tumor model L1210 Leukemia (intraperitoneal) in B6D2F1 (BDF1) mice
Details: higher = longer survival
In short: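 Value reflects the ratio of survival in compound-treated mice to survival in vehicle-treated controls, with both groups carrying the same transplanted tumor.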

[1] = endpoint: mean survival time, dose: 100.0 mg/kg/injection, schedule: Q01DX009 (ip), vehicle: saline with Tween-80
[2] = endpoint: mean survival time, dose: 200.0 mg/kg/injection, schedule: Q01DX009 (ip), vehicle: saline with Tween-80
[3] = endpoint: mean survival time, dose: 100.0 mg/kg/injection, schedule: Q01DX001 (ip), vehicle: saline
[4] = endpoint: mean survival time, dose: 200.0 mg/kg/injection, schedule: Q01DX001 (ip), vehicle: saline
[5] = endpoint: mean survival time, dose: 400.0 mg/kg/injection, schedule: Q01DX001 (ip), vehicle: saline
[6] = endpoint: mean survival time, dose: 100.0 mg/kg/injection, schedule: Q04DX003 (ip), vehicle: saline with Tween-80
[7] = endpoint: mean survival time, dose: 200.0 mg/kg/injection, schedule: Q04DX003 (ip), vehicle: saline with Tween-80
[8] = endpoint: mean survival time, dose: 400.0 mg/kg/injection, schedule: Q04DX003 (ip), vehicle: saline with Tween-80
[9] = endpoint: mean survival time, dose: 100.0 mg/kg/injection, schedule: Q04DX003 (ip), vehicle: saline
[10] = endpoint: mean survival time, dose: 200.0 mg/kg/injection, schedule: Q04DX003 (ip), vehicle: saline
[11] = endpoint: mean survival time, dose: 0.78 mg/kg/injection, schedule: Q01DX009 (ip), vehicle: saline
[12] = endpoint: mean survival time, dose: 3.12 mg/kg/injection, schedule: Q01DX009 (ip), vehicle: saline
[13] = endpoint: mean survival time, dose: 0.25 mg/kg/injection, schedule: Q01DX015 (ip), vehicle: carboxymethylcellulose (CMC)
[14] = endpoint: mean survival time, dose: 0.5 mg/kg/injection, schedule: Q01DX015 (ip), vehicle: carboxymethylcellulose (CMC)
[15] = endpoint: mean survival time, dose: 1.0 mg/kg/injection, schedule: Q01DX015 (ip), vehicle: carboxymethylcellulose (CMC)
[16] = endpoint: mean survival time, dose: 2.0 mg/kg/injection, schedule: Q01DX015 (ip), vehicle: carboxymethylcellulose (CMC)
[17] = endpoint: mean survival time, dose: 100.0 mg/kg/injection, schedule: Q01DX001 (ip), vehicle: carboxymethylcellulose (CMC)
[18] = endpoint: mean survival time, dose: 200.0 mg/kg/injection, schedule: Q01DX001 (ip), vehicle: carboxymethylcellulose (CMC)
[19] = endpoint: mean survival time, dose: 400.0 mg/kg/injection, schedule: Q01DX001 (ip), vehicle: carboxymethylcellulose (CMC)
[20] = endpoint: mean survival time, dose: 100.0 mg/kg/injection, schedule: Q04DX002 (ip), vehicle: Klucel (hydroxypropylcellulose) (HPC)
[21] = endpoint: mean survival time, dose: 200.0 mg/kg/injection, schedule: Q04DX002 (ip), vehicle: Klucel (hydroxypropylcellulose) (HPC)
[22] = endpoint: mean survival time, dose: 100.0 mg/kg/injection, schedule: Q01DX009 (ip), vehicle: Klucel (hydroxypropylcellulose) (HPC)
[23] = endpoint: mean survival time, dose: 200.0 mg/kg/injection, schedule: Q01DX009 (ip), vehicle: Klucel (hydroxypropylcellulose) (HPC)
[24] = endpoint: mean survival time, dose: 400.0 mg/kg/injection, schedule: Q01DX009 (ip), vehicle: Klucel (hydroxypropylcellulose) (HPC)
[25] = endpoint: mean survival time, dose: 100.0 mg/kg/injection, schedule: Q01DX001 (ip), vehicle: other
[26] = endpoint: mean survival time, dose: 200.0 mg/kg/injection, schedule: Q01DX001 (ip), vehicle: other
[27] = endpoint: mean survival time, dose: 400.0 mg/kg/injection, schedule: Q01DX001 (ip), vehicle: other

Measured: T/C

Cc1c(-c2ccccc2)ccnc1C#N
inactive: endpoint: mean survival time, dose: 50.0 mg/kg/injection, schedule: Q01DX009 (ip), vehicle: saline with Tween-80 97 % of control | [1] 102 % of control | [2] 97 % of control

O=C(OC(=O)c1cccc2ccccc12)c1cccc2ccccc12
inactive: [3] 94 % of control | [4] 102 % of control | [5] 94 % of control

CCC(C(=O)c1ccc(F)cc1)C(O)(C(F)(F)F)C(F)(F)F (stereo not given)
inactive: [6] 104 % of control | [7] 103 % of control | [8] 101 % of control

CCSC(SCC)C(N)C(O)C(O)C(O)CO (stereo not given)
inactive: endpoint: mean survival time, dose: 50.0 mg/kg/injection, schedule: Q04DX002 (ip), vehicle: saline 103 % of control | endpoint: mean survival time, dose: 100.0 mg/kg/injection, schedule: Q04DX002 (ip), vehicle: saline 103 % of control | endpoint: mean survival time, dose: 200.0 mg/kg/injection, schedule: Q04DX002 (ip), vehicle: saline 109 % of control

Nc1nc(=O)c2ccccc2s1
inactive: [3] 97 % of control | [6] 101 % of control | [4] 98 % of control | [7] 108 % of control | [5] 97 % of control | [8] 106 % of control

C=CCN=C(N)C(N)=NCC=C
inactive: [9] 96 % of control | [10] 101 % of control | endpoint: mean survival time, dose: 400.0 mg/kg/injection, schedule: Q04DX003 (ip), vehicle: saline 103 % of control

CN(C)CC(C(=O)c1ccc(Br)cc1)C(Br)c1ccccc1 (stereo not given)
inactive: [11] 94 % of control | endpoint: mean survival time, dose: 1.56 mg/kg/injection, schedule: Q01DX009 (ip), vehicle: saline 92 % of control | [12] 97 % of control | endpoint: mean survival time, dose: 12.5 mg/kg/injection, schedule: Q04DX003 (ip), vehicle: saline with Tween-80 95 % of control | endpoint: mean survival time, dose: 25.0 mg/kg/injection, schedule: Q04DX003 (ip), vehicle: saline with Tween-80 91 % of control

NC(=S)c1nn(C2OC(CO)C(O)C2O)c2ncnc(N)c12 (stereo not given)
active: [12] 173 % of control
inactive: [11] 122 % of control | endpoint: mean survival time, dose: 6.25 mg/kg/injection, schedule: Q01DX009 (ip), vehicle: saline 89 % of control

CO[C@H]1C[C@H](O[C@H]2CC[C@]3(C=O)[C@H]4CC[C@]5(C)[C@@H](C6=CC(=O)OC6)CC[C@]5(O)[C@@H]4CC[C@]3(O)C2)O[C@H](C)[C@H]1O[C@@H]1O[C@H](CO)[C@@H](O)[C@H](O)[C@H]1O
inactive: [13] 88 % of control | endpoint: mean survival time, dose: 0.5 mg/kg/injection, schedule: Q01DX001 (ip), vehicle: saline 100 % of control | [14] 113 % of control | endpoint: mean survival time, dose: 0.5 mg/kg/injection, schedule: Q04DX003 (ip), vehicle: saline 100 % of control | [15] 89 % of control | endpoint: mean survival time, dose: 1.0 mg/kg/injection, schedule: Q04DX003 (ip), vehicle: saline 103 % of control | [16] 97 % of control | endpoint: mean survival time, dose: 4.0 mg/kg/injection, schedule: Q01DX001 (ip), vehicle: saline 98 % of control | endpoint: median survival time, dose: 0.5 mg/kg/injection, schedule: Q01DX005 (ip), vehicle: water 104 % of control | endpoint: median survival time, dose: 1.0 mg/kg/injection, schedule: Q01DX005 (ip), vehicle: water 103 % of control | endpoint: median survival time, dose: 2.0 mg/kg/injection, schedule: Q01DX005 (ip), vehicle: water 106 % of control

CN1C(c2ccccc2)(c2ccccc2)c2ccccc2S1(=O)=O
inactive: [17] 95 % of control | [18] 95 % of control | [19] 93 % of control

O=C(Nc1ccccc1)Oc1ccc(C2CCCCC2)cc1
inactive: [20] 93 % of control | [21] 121 % of control

O=N[C@H]1C2CC([C@@H]1Cl)[C@@H]1CC=C[C@H]21 (stereo not given in full)
inactive: endpoint: mean survival time, dose: 50.0 mg/kg/injection, schedule: Q01DX001 (ip), vehicle: carboxymethylcellulose (CMC) 95 % of control | [17] 101 % of control | [18] 95 % of control

O=S(=O)(Nc1ccc2c3c(cccc13)CC2)c1ccccc1
inactive: [1] 92 % of control | [2] 94 % of control | endpoint: mean survival time, dose: 400.0 mg/kg/injection, schedule: Q01DX009 (ip), vehicle: saline with Tween-80 103 % of control

COc1ccccc1CN1CCCN(Cc2ccccc2OC)C1c1cc(I)cc(I)c1O
inactive: [17] 98 % of control | [18] 98 % of control | [19] 93 % of control

O=C(c1ccccc1)c1ccc(O)c2ncccc12
inactive: [20] 102 % of control | [21] 102 % of control | endpoint: mean survival time, dose: 400.0 mg/kg/injection, schedule: Q04DX002 (ip), vehicle: Klucel (hydroxypropylcellulose) (HPC) 98 % of control

COc1cc(C(=O)OC2CC34CCNC35CC(OC5(OC)C2O)c2cc3c(cc24)OCO3)ccc1O (stereo not given)
inactive: [13] 100 % of control | [14] 100 % of control | endpoint: mean survival time, dose: 0.75 mg/kg/injection, schedule: Q01DX015 (ip), vehicle: carboxymethylcellulose (CMC) 103 % of control | endpoint: mean survival time, dose: 1.0 mg/kg/injection, schedule: Q01DX009 (ip), vehicle: carboxymethylcellulose (CMC) 95 % of control | [15] 104 % of control and 108 % of control | endpoint: mean survival time, dose: 1.25 mg/kg/injection, schedule: Q01DX015 (ip), vehicle: carboxymethylcellulose (CMC) 96 % of control | endpoint: mean survival time, dose: 1.5 mg/kg/injection, schedule: Q01DX015 (ip), vehicle: carboxymethylcellulose (CMC) 102 % of control | endpoint: mean survival time, dose: 1.75 mg/kg/injection, schedule: Q01DX015 (ip), vehicle: carboxymethylcellulose (CMC) 98 % of control | endpoint: mean survival time, dose: 2.0 mg/kg/injection, schedule: Q01DX009 (ip), vehicle: carboxymethylcellulose (CMC) 92 % of control | [16] 93 % of control | endpoint: mean survival time, dose: 2.5 mg/kg/injection, schedule: Q01DX015 (ip), vehicle: carboxymethylcellulose (CMC) 96 % of control

O=C(O)CS(=O)(=O)c1ccccc1
inactive: [9] 95 % of control | [10] 105 % of control

COc1ccc([N+](=O)[O-])cc1NC(=O)c1ccc(Cl)cc1
inactive: endpoint: mean survival time, dose: 50.0 mg/kg/injection, schedule: Q01DX009 (ip), vehicle: Klucel (hydroxypropylcellulose) (HPC) 96 % of control | [22] 94 % of control | [23] 95 % of control | [24] 94 % of control

CN(Cc1ccccc1Cl)C(=O)Nc1ccccc1
inactive: [22] 101 % of control | [23] 106 % of control | [24] 101 % of control

CC1(C)C/C(=C\c2ccccc2)C(=O)c2ccccc21
inactive: [6] 107 % of control | [7] 96 % of control | [8] 96 % of control

CCCCC/C(=N/NC(N)=O)C(OC)OC
inactive: [25] 92 % of control | [26] 92 % of control | [27] 97 % of control

CCOC(=O)C(C1=NC(C)(C)CC(C)O1)C(C[N+](=O)[O-])c1ccccc1 (stereo not given)
inactive: [25] 97 % of control | [26] 97 % of control | [27] 100 % of control

CCCCCCCCCCOP(=S)(N1CC1)N1CC1
active: endpoint: mean survival time, dose: 20.0 mg/kg/injection, schedule: Q01DX Z (ip), vehicle: carboxymethylcellulose (CMC) 232 % of control and 260 % of control | endpoint: mean survival time, dose: 40.0 mg/kg/injection, schedule: Q01DX Z (ip), vehicle: carboxymethylcellulose (CMC) 150 % of control
inactive: endpoint: mean survival time, dose: 2.5 mg/kg/injection, schedule: Q01DX Z (ip), vehicle: carboxymethylcellulose (CMC) 107 % of control | endpoint: mean survival time, dose: 5.0 mg/kg/injection, schedule: Q01DX Z (ip), vehicle: carboxymethylcellulose (CMC) 118 % of control

C=CCNC(C)=O
inactive: endpoint: mean survival time, dose: 100.0 mg/kg/injection, schedule: Q01DX009 (ip), vehicle: saline 97 % of control | [9] 98 % of control | endpoint: mean survival time, dose: 200.0 mg/kg/injection, schedule: Q01DX009 (ip), vehicle: saline 97 % of control | [10] 97 % of control | endpoint: mean survival time, dose: 400.0 mg/kg/injection, schedule: Q01DX009 (ip), vehicle: saline 97 % of control
